Measured values taken from US5977133A, “Pyridone antibiotic with improved safety profile” (priority 1998, dated 1999).
Values after ≈ are worked out from the molar mass of the structure shown.

Key:
Type in all cases: cell-based
[1] = tested on: S. pyogenes; assay: In vitro MIC, agar dilution; details: Streptococcus pyogenes
[2] = tested on: S. pneumoniae (PenS); assay: In vitro MIC, agar dilution; details: Streptococcus pneumoniae
[3] = tested on: Shigella spp.; assay: microbe, parasite or virus in culture; details: read-out: MIC Range
[4] = tested on: Enterococcus spp. (VanR); assay: In vitro MIC, agar dilution; details: Enterococcus spp. (VanR), 21 isolates
[5] = tested on: Enterobacter spp.; assay: In vitro MIC, agar dilution
[6] = tested on: S. aureus (CiproR); assay: In vitro MIC, agar dilution; details: Staphylococcus aureus
[7] = tested on: S. aureus (CiproS); assay: In vitro MIC, agar dilution; details: Staphylococcus aureus
[8] = tested on: E. faecium (CiproS); assay: In vitro MIC, agar dilution; details: Enterococcus faecium, E. faecium (CiproS), 16 isolates
[9] = tested on: P. aeruginosa (CiproS); assay: In vitro MIC, agar dilution; details: Pseudomonas aeruginosa, P. aeruginosa (CiproS), 24 isolates
[10] = tested on: M. pneumoniae; assay: In vitro MIC, agar dilution; details: Mycoplasmoides pneumoniae, read-out: MIC Range
[11] = tested on: B. fragilis; assay: In vitro MIC, agar dilution; details: Bacteroides fragilis
[12] = tested on: Providencia spp.; assay: In vitro MIC, agar dilution; details: Providencia spp., 28 isolates
[13] = tested on: P. aeruginosa (CiproR); assay: In vitro MIC, agar dilution; details: Pseudomonas aeruginosa
[14] = tested on: M. avium; assay: In vitro MIC, agar dilution; details: Mycobacterium avium
[15] = tested on: E. faecium (CiproR); assay: In vitro MIC, agar dilution; details: Enterococcus faecium; E. faecium (CiproR), 2 isolates; read-out: MIC Range
[16] = tested on: E. coli; assay: In vitro MIC, agar dilution; details: Escherichia coli, 25 isolates
Method in brief: (§1)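 Agar dilution plates were inoculated with ~10^4 CFU per spot by replicator, using 1:100 dilutions (1:10 for slow growers) and incubated at 35–37 °C for 20–24 h. MIC is the lowest concentration giving no growth, where slight haze or sparse colonies count as none, judged against a compound-free BHI agar control.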

[17] = tested on: Salmonella spp.; assay: In vitro MIC, agar dilution; details: 23 isolates
Method in brief: as §1

[18] = tested on: Legionella spp.; assay: microbe, parasite or virus in culture; details: Legionella
[19] = tested on: C. perfringens; assay: microbe, parasite or virus in culture; details: Clostridium perfringens
[20] = tested on: S. epidermidis (CiproR); assay: In vitro MIC, agar dilution; details: Staphylococcus epidermidis, S. epidermidis (CiproR), 11 isolates
[21] = tested on: S. pneumoniae (PenR); assay: In vitro MIC, agar dilution; details: Streptococcus pneumoniae
[22] = tested on: E. faecium (VanS); assay: In vitro MIC, agar dilution; details: Enterococcus faecium, E. faecium (VanS), 11 isolates
[23] = tested on: Klebsiella spp.; assay: In vitro MIC, agar dilution
[24] = tested on: S. epidermidis (CiproS); assay: In vitro MIC, agar dilution; details: Staphylococcus epidermidis
[25] = tested on: H. influenzae; assay: In vitro MIC, agar dilution; details: Haemophilus influenzae
[26] = tested on: P. mirabilis; assay: In vitro MIC, agar dilution; details: Proteus mirabilis
[27] = tested on: E. faecalis (VanS); assay: In vitro MIC, agar dilution; details: Enterococcus faecalis
[28] = tested on: M. catarrhalis; assay: In vitro MIC, agar dilution; details: Moraxella catarrhalis
[29] = tested on: N. gonorrhoeae; assay: In vitro MIC, agar dilution; details: Neisseria gonorrhoeae
[30] = tested on: S. pneumoniae (CiproR); assay: In vitro MIC, agar dilution; details: Streptococcus pneumoniae, read-out: MIC Range

C[C@@H]1CN(c2c(F)c(N)c3c(=O)c(C(=O)O)cn(C4CC4)c3c2F)C[C@H](C)N1 [Sparfloxacin, sparfloxacin] showed an MIC90 [1] of 0.5 µg/mL (≈ 1.27 µM), an MIC ([1]; read-out: MIC Range) of 0.12 to 1 µg/mL (≈ 0.306 to 2.55 µM) and an MIC50 ([1]; S. pyogenes, 21 isolates, read-out: MIC50) of 0.25 µg/mL (≈ 0.637 µM). The MIC90 [2] was 0.5 µg/mL (≈ 1.27 µM), the MIC ([2]; read-out: MIC Range) was 0.12 to 0.5 µg/mL (≈ 0.306 to 1.27 µM) and the MIC50 ([2]; S. pneumoniae (PenS), 20 isolates, read-out: MIC50) was 0.25 µg/mL (≈ 0.637 µM). For the same molecule, the MIC [3] was 0.004 to 0.015 µg/mL (≈ 0.0102 to 0.0382 µM), the MIC50 ([4]; read-out: MIC50) was 0.5 µg/mL (≈ 1.27 µM) and the MIC90 ([4]; read-out: MIC90) was 8 µg/mL (≈ 20.4 µM). For the same molecule, the MIC ([4]; read-out: MIC Range) was 0.25 to 32 µg/mL (≈ 0.637 to 81.5 µM), the MIC90 ([5]; Enterobacter) was 0.06 µg/mL (≈ 0.153 µM) and the MIC50 ([5]; Enterobacter spp., 35 isolates, read-out: MIC50) was 0.06 µg/mL (≈ 0.153 µM). It also gave an MIC ([5]; Enterobacter spp., 35 isolates, read-out: MIC Range) of 0.008 to 0.25 µg/mL (≈ 0.0204 to 0.637 µM), an MIC ([6]; read-out: MIC Range) of 0.12 to 16 µg/mL (≈ 0.306 to 40.8 µM) and an MIC50 ([6]; S. aureus (CiproR), 25 isolates, read-out: MIC50) of 4 µg/mL (≈ 10.2 µM). It also gave an MIC90 ([6]; S. aureus (CiproR), 25 isolates, read-out: MIC90) of 8 µg/mL (≈ 20.4 µM), an MIC50 [7] of 0.03 µg/mL (≈ 0.0765 µM) and an MIC90 [7] of 0.06 µg/mL (≈ 0.153 µM). It also gave an MIC ([7]; S. aureus (CiproS), 21 isolates, read-out: MIC Range) of 0.03 to 0.06 µg/mL (≈ 0.0765 to 0.153 µM), an MIC50 ([8]; read-out: MIC50) of 0.5 µg/mL (≈ 1.27 µM) and an MIC90 ([8]; read-out: MIC90) of 1 µg/mL (≈ 2.55 µM). For the same molecule, the MIC ([8]; read-out: MIC Range) was 0.5 to 32 µg/mL (≈ 1.27 to 81.5 µM), the MIC50 ([9]; read-out: MIC50) was 0.5 µg/mL (≈ 1.27 µM) and the MIC90 ([9]; read-out: MIC90) was 1 µg/mL (≈ 2.55 µM). It also gave an MIC ([9]; read-out: MIC Range) of 0.06 to 8 µg/mL (≈ 0.153 to 20.4 µM), an MIC [10] of 0.06 to 0.12 µg/mL (≈ 0.153 to 0.306 µM) and an MIC ([11]; read-out: MIC Range) of 0.5 to 2 µg/mL (≈ 1.27 to 5.1 µM). The MIC50 ([11]; B. fragilis, 18 isolates, read-out: MIC50) was 1 µg/mL (≈ 2.55 µM), the MIC90 ([11]; B. fragilis, 18 isolates, read-out: MIC90) was 2 µg/mL (≈ 5.1 µM) and the MIC50 ([12]; read-out: MIC50) was 0.12 µg/mL (≈ 0.306 µM). The MIC90 ([12]; read-out: MIC90) was 1 µg/mL (≈ 2.55 µM), the MIC ([12]; read-out: MIC Range) was 0.015 to 2 µg/mL (≈ 0.0382 to 5.1 µM) and the MIC90 [13] was 128 µg/mL (≈ 326 µM). It also gave an MIC50 ([13]; P. aeruginosa (CiproR), 20 isolates, read-out: MIC50) of 64 µg/mL (≈ 163 µM), an MIC ([14]; read-out: MIC Range) of 0.5 to 16 µg/mL (≈ 1.27 to 40.8 µM) and an MIC50 ([14]; M. avium, 20 isolates, read-out: MIC50) of 2 µg/mL (≈ 5.1 µM). For the same molecule, the MIC90 ([14]; M. avium, 20 isolates, read-out: MIC90) was 2 µg/mL (≈ 5.1 µM), the MIC [15] was 8 to 32 µg/mL (≈ 20.4 to 81.5 µM) and the MIC [16] was 0.004 to 0.03 µg/mL (≈ 0.0102 to 0.0765 µM). The MIC50 ([16]; read-out: MIC50) was 0.015 µg/mL (≈ 0.0382 µM), the MIC90 ([16]; read-out: MIC90) was 0.03 µg/mL (≈ 0.0765 µM) and the MIC [17] was 0.004 to 0.5 µg/mL (≈ 0.0102 to 1.27 µM). The MIC50 ([17]; read-out: MIC50) was 0.03 µg/mL (≈ 0.0765 µM), the MIC90 ([17]; read-out: MIC90) was 0.06 µg/mL (≈ 0.153 µM) and the MIC50 [18] was 0.06 µg/mL (≈ 0.153 µM). For the same molecule, the MIC90 [18] was 0.25 µg/mL (≈ 0.637 µM), the MIC ([18]; read-out: MIC Range) was 0.03 to 0.25 µg/mL (≈ 0.0765 to 0.637 µM) and the MIC50 [19] was 0.25 µg/mL (≈ 0.637 µM). It also gave an MIC90 ([19]; C. perfringens, 13 isolates) of 0.5 µg/mL (≈ 1.27 µM), an MIC ([19]; read-out: MIC Range) of 0.06 to 0.5 µg/mL (≈ 0.153 to 1.27 µM) and an MIC50 ([20]; read-out: MIC50) of 4 µg/mL (≈ 10.2 µM). For the same molecule, the MIC90 ([20]; read-out: MIC90) was 8 µg/mL (≈ 20.4 µM), the MIC90 [21] was 0.25 µg/mL (≈ 0.637 µM) and the MIC ([21]; read-out: MIC Range) was 0.12 to 0.25 µg/mL (≈ 0.306 to 0.637 µM). For the same molecule, the MIC50 ([21]; S. pneumoniae (PenR), 25 isolates, read-out: MIC50) was 0.25 µg/mL (≈ 0.637 µM), the MIC50 ([22]; read-out: MIC50) was 1 µg/mL (≈ 2.55 µM) and the MIC90 ([22]; read-out: MIC90) was 2 µg/mL (≈ 5.1 µM). The MIC ([22]; read-out: MIC Range) was 1 to 4 µg/mL (≈ 2.55 to 10.2 µM), the MIC90 ([23]; Klebsiella) was 0.06 µg/mL (≈ 0.153 µM) and the MIC50 ([23]; Klebsiella spp., 29 isolates, read-out: MIC50) was 0.06 µg/mL (≈ 0.153 µM). It also gave an MIC ([23]; Klebsiella spp., 29 isolates, read-out: MIC Range) of 0.004 to 0.5 µg/mL (≈ 0.0102 to 1.27 µM), an MIC90 [24] of 0.12 µg/mL (≈ 0.306 µM) and an MIC50 ([24]; S. epidermidis (CiproS), 23 isolates, read-out: MIC50) of 0.06 µg/mL (≈ 0.153 µM). It also gave an MIC ([24]; S. epidermidis (CiproS), 23 isolates, read-out: MIC Range) of 0.03 to 0.12 µg/mL (≈ 0.0765 to 0.306 µM), an MIC90 [25] of 0.015 µg/mL (≈ 0.0382 µM) and an MIC50 ([25]; H. influenzae, 18 isolates, read-out: MIC50) of 0.008 µg/mL (≈ 0.0204 µM). For the same molecule, the MIC ([25]; H. influenzae, 18 isolates, read-out: MIC Range) was 0.004 to 0.03 µg/mL (≈ 0.0102 to 0.0765 µM), the MIC90 [26] was 0.25 µg/mL (≈ 0.637 µM) and the MIC ([26]; read-out: MIC Range) was 0.12 to 0.5 µg/mL (≈ 0.306 to 1.27 µM). For the same molecule, the MIC50 ([26]; P. mirabilis, 20 isolates, read-out: MIC50) was 0.25 µg/mL (≈ 0.637 µM), the MIC90 [27] was 0.5 µg/mL (≈ 1.27 µM) and the MIC ([27]; read-out: MIC Range) was 0.25 to 1 µg/mL (≈ 0.637 to 2.55 µM). The MIC50 ([27]; E. faecalis (VanS), 17 isolates, read-out: MIC50) was 0.5 µg/mL (≈ 1.27 µM), the MIC50 [28] was 0.03 µg/mL (≈ 0.0765 µM) and the MIC90 [28] was 0.06 µg/mL (≈ 0.153 µM). It also gave an MIC ([28]; M. catarrhalis, 18 isolates, read-out: MIC Range) of 0.015 to 0.25 µg/mL (≈ 0.0382 to 0.637 µM), an MIC90 [29] of 0.015 µg/mL (≈ 0.0382 µM) and an MIC50 ([29]; N. gonorrhoeae, 12 isolates, read-out: MIC50) of 0.004 µg/mL (≈ 0.0102 µM). The MIC ([29]; N. gonorrhoeae, 12 isolates, read-out: MIC Range) was 0.002 to 0.06 µg/mL (≈ 0.0051 to 0.153 µM) and the MIC [30] was 0.25 to 0.5 µg/mL (≈ 0.637 to 1.27 µM).
